Results on 65 sequences are retold here after the supplement of paper PMC11208160.
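Also: IS621 bridge recombinase in Escherichia coli cells against a fixed T5 target plasmid.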

This series in a line: recombinant UMI read abundance after kanamycin selection (control-corrected) (log10(CPM+1)); higher = more efficient recombination; extreme values may be limits of the assay; sequences stand for … in AGTGCAGAGAAAATCGGCCAGTTTTCTCTGCCTGCAGTCCGCATGCCGTGGGACCCCTTGGGTTCTAACCTGTTGCCTAGATTTATGCAGCGGACTGCCTTTCTCCCAAAGTGATAAACCGG…AGGTTGGTTTCACT; site = the 11-nt donor. The procedure: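 Pooled E. coli donor-specificity screen for the IS621 bridge recombinase. Each library member carries a reprogrammed 11-nt donor and a full-length LE bridge RNA expressed in cis from the natural promoter, with a paired donor-binding loop (8-nt LDG + 4-nt RDG) and a target-binding loop fixed to T5. It is co-electroporated with a T5 target plasmid; recombinase is induced with 0.07 mM IPTG and recombinants are selected on kanamycin. UMIs are counted as CPM, averaged over two biological replicates and corrected by the unselected control. Molecule = full bridge RNA written as DNA, built from the T5 scaffold: LDG = donor specificity nt 1-8, RDG = reverse complement of nt 8-11.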
For “ACATCTCCATGGACCGGTTTTCCCGGTAATCCGTATTTGTG (site ACATCTGCTCA)”, the “recombinant UMI read abundance (log10)” value was found to be 0.0416.

On to “ACATCTCCATGGACCGGTTTTCCCGGTAATCCGTATTTGTG (site ACATCTTCTCA)”, for which the “recombinant UMI read abundance (log10)” value was determined as 0.00664.

As for “ACATCTTCATGGACCGGTTTTCCCGGTAATCCGTATTTGTG (site ACATCTACTCA)”, the “recombinant UMI read abundance (log10)” value amounted to 0.0158. To “ACATCTTCATGGACCGGTTTTCCCGGTAATCCGTATTTGTG (site ACATCTCCTCA)” belongs 0.0151. As for “ACATCTTCATGGACCGGTTTTCCCGGTAATCCGTATTTGTG (site ACATCTGCTCA)”, the “recombinant UMI read abundance (log10)” value was 0.

As to “ACATCTTCATGGACCGGTTTTCCCGGTAATCCGTATTTGTG (site ACATCTTCTCA)”, the “recombinant UMI read abundance (log10)” value was 0.969.

On to “ACATGAACATGGACCGGTTTTCCCGGTAATCCGTATTTGAC (site ACATGAACTGT)”, for which the “recombinant UMI read abundance (log10)” value was determined as 2.71. For “ACATGATCATGGACCGGTTTTCCCGGTAATCCGTATTTGCA (site ACAGTATCTTG)” the value was 1.14.

With “ACATGATCATGGACCGGTTTTCCCGGTAATCCGTATTTGCA (site ACATGATCTTG)”, the “recombinant UMI read abundance (log10)” value worked out at 2.74. Take “ACATGCGCATGGACCGGTTTTCCCGGTAATCCGTATTTGGT (site ACATGCGCTAC)”: the “recombinant UMI read abundance (log10)” value came out at 1.02. For “ACATTACCATGGACCGGTTTTCCCGGTAATCCGTATTTGGA (site ACATTACCTTC)” the value was 0; for “ACATTATCATGGACCGGTTTTCCCGGTAATCCGTATTTGAA (site ACAGTATCTTG)”, 0; for “ACATTATCATGGACCGGTTTTCCCGGTAATCCGTATTTGAA (site ACATTATCTTT)”, 2.38.

Consider “ACATTGCCATGGACCGGTTTTCCCGGTAATCCGTATTTGGG (site ACATTGCCTCC)”, for which the “recombinant UMI read abundance (log10)” value came to 0.0159. Regarding “ACATTGGCATGGACCGGTTTTCCCGGTAATCCGTATTTGTT (site ACATTGGCTAA)”, the “recombinant UMI read abundance (log10)” value turned out to be 1.53.

Take “ACCAATTCATGGACCGGTTTTCCCGGTAATCCGTATTTGCC (site ACCAATTCTGG)”: the “recombinant UMI read abundance (log10)” value is 2.25. Turning to “ACCAATTCATGGACCGGTTTTCCCGGTAATCCGTATTTGCC (site CCCAATTCTGG)”, the “recombinant UMI read abundance (log10)” value was 1.91. For “ACCAATTCATGGACCGGTTTTCCCGGTAATCCGTATTTGCC (site GCCAATTCTGG)”, the “recombinant UMI read abundance (log10)” value was determined as 0.507. For “ACCAATTCATGGACCGGTTTTCCCGGTAATCCGTATTTGCC (site TCCAATTCTGG)” the value was 0.66; for “ACCAGAACATGGACCGGTTTTCCCGGTAATCCGTATTTGAG (site ACAAGAACTCT)”, 0; for “ACCAGAACATGGACCGGTTTTCCCGGTAATCCGTATTTGAG (site ACCAGAACTCT)”, 2.19. For “ACCAGAACATGGACCGGTTTTCCCGGTAATCCGTATTTGAG (site ACGAGAACTCT)” the value was 0; for “ACCAGAACATGGACCGGTTTTCCCGGTAATCCGTATTTGAG (site ACTAGAACTCT)”, 0.155; for “ACCAGCTCATGGACCGGTTTTCCCGGTAATCCGTATTTGTC (site ACCAGCTCTGA)”, 2.47. To “ACCATATCATGGACCGGTTTTCCCGGTAATCCGTATTTGTC (site ACCATATCTGA)” belongs 2.03; to “ACCATATCATGGACCGGTTTTCCCGGTAATCCGTATTTGTC (site CCCATATCTGA)”, 0.

Take “ACCATATCATGGACCGGTTTTCCCGGTAATCCGTATTTGTC (site GCCATATCTGA)”: the “recombinant UMI read abundance (log10)” value was found to be 0. For “ACCATATCATGGACCGGTTTTCCCGGTAATCCGTATTTGTC (site TCCATATCTGA)” the value was 0; for “ACCCAATCATGGACCGGTTTTCCCGGTAATCCGTATTTGGA (site ACCCAATCTTC)”, 2.04; for “ACCCACACATGGACCGGTTTTCCCGGTAATCCGTATTTGTA (site ACCCACACTTA)”, 1.92.

On to “ACCCACACATGGACCGGTTTTCCCGGTAATCCGTATTTGTA (site CCCCACACTTA)”, for which the “recombinant UMI read abundance (log10)” value stood at 0.963. As to “ACCCACACATGGACCGGTTTTCCCGGTAATCCGTATTTGTA (site GCCCACACTTA)”, the “recombinant UMI read abundance (log10)” value stood at 0.0193. For “ACCCACACATGGACCGGTTTTCCCGGTAATCCGTATTTGTA (site TCCCACACTTA)” the value was 0.408; for “ACCCATTCATGGACCGGTTTTCCCGGTAATCCGTATTTGGA (site ACCCATTCTTC)”, 1.53. For “ACCCCAACATGGACCGGTTTTCCCGGTAATCCGTATTTGGT (site ACCCCAACTAC)” the value was 0.756; for “ACCCCATCATGGACCGGTTTTCCCGGTAATCCGTATTTGAT (site ACCCCATCTAT)”, 1.23; for “ACCCCGACATGGACCGGTTTTCCCGGTAATCCGTATTTGTG (site ACCCCGACTCA)”, 0.965. Consider “ACCCCTACATGGACCGGTTTTCCCGGTAATCCGTATTTGAA (site ACCCCTACTTT)”, for which the “recombinant UMI read abundance (log10)” value is 1.06. For “ACCCGCTCATGGACCGGTTTTCCCGGTAATCCGTATTTGCA (site ACCCGCTCTTG)” the value was 2.9. To “ACCCTCACATGGACCGGTTTTCCCGGTAATCCGTATTTGTA (site ACCCTCACTTA)” belongs 0.59. Take “ACCCTTACATGGACCGGTTTTCCCGGTAATCCGTATTTGAG (site ACCCTTACTCT)”: the “recombinant UMI read abundance (log10)” value was determined as 1.66. To “ACCCTTTCATGGACCGGTTTTCCCGGTAATCCGTATTTGAC (site AACCTTTCTGT)” belongs 0; to “ACCCTTTCATGGACCGGTTTTCCCGGTAATCCGTATTTGAC (site ACCCTTTCTGT)”, 0. On to “ACCCTTTCATGGACCGGTTTTCCCGGTAATCCGTATTTGAC (site AGCCTTTCTGT)”, for which the “recombinant UMI read abundance (log10)” value was 0. With “ACCCTTTCATGGACCGGTTTTCCCGGTAATCCGTATTTGAC (site ATCCTTTCTGT)”, the “recombinant UMI read abundance (log10)” value is 0. To “ACCGAGACATGGACCGGTTTTCCCGGTAATCCGTATTTGGG (site ACCAAGACTCC)” belongs 0.109; to “ACCGAGACATGGACCGGTTTTCCCGGTAATCCGTATTTGGG (site ACCCAGACTCC)”, 0.0111. For “ACCGAGACATGGACCGGTTTTCCCGGTAATCCGTATTTGGG (site ACCGAGACTCC)” the value was 0.621; for “ACCGAGACATGGACCGGTTTTCCCGGTAATCCGTATTTGGG (site ACCTAGACTCC)”, 0; for “ACCGAGCCATGGACCGGTTTTCCCGGTAATCCGTATTTGAT (site ACCGAGCCTAT)”, 1.13. To “ACCGATACATGGACCGGTTTTCCCGGTAATCCGTATTTGAA (site ACCGATACTTT)” belongs 1.6. “ACCGCTACATGGACCGGTTTTCCCGGTAATCCGTATTTGCC (site ACCGCTACTGG)”: the “recombinant UMI read abundance (log10)” value amounted to 1.75.

Take “ACCGGACCATGGACCGGTTTTCCCGGTAATCCGTATTTGGC (site ACCGGACCTGC)”: the “recombinant UMI read abundance (log10)” value turned out to be 0. For “ACCGGTCCATGGACCGGTTTTCCCGGTAATCCGTATTTGCA (site ACCGGTCCTTG)” the value was 0. Turning to “ACCGGTCCATGGACCGGTTTTCCCGGTAATCCGTATTTGCA (site CCCGGTCCTTG)”, the “recombinant UMI read abundance (log10)” value was found to be 0. For “ACCGGTCCATGGACCGGTTTTCCCGGTAATCCGTATTTGCA (site GCCGGTCCTTG)”, the “recombinant UMI read abundance (log10)” value was 0. Regarding “ACCGGTCCATGGACCGGTTTTCCCGGTAATCCGTATTTGCA (site TCCGGTCCTTG)”, the “recombinant UMI read abundance (log10)” value is 0. To “ACCGGTCCATGGACCGGTTTTCCCGGTAATCCGTATTTGTT (site ACCGGTCCTAA)” belongs 0.

In the case of “ACCTACGCATGGACCGGTTTTCCCGGTAATCCGTATTTGAA (site ACCTACGCTTT)”, the “recombinant UMI read abundance (log10)” value came to 1.09. As to “ACCTAGACATGGACCGGTTTTCCCGGTAATCCGTATTTGAG (site ACCTAGACTCA)”, the “recombinant UMI read abundance (log10)” value was found to be 0.226. For “ACCTAGACATGGACCGGTTTTCCCGGTAATCCGTATTTGAG (site ACCTAGACTCC)” the value was 0.241; for “ACCTAGACATGGACCGGTTTTCCCGGTAATCCGTATTTGAG (site ACCTAGACTCG)”, 0.352; for “ACCTAGACATGGACCGGTTTTCCCGGTAATCCGTATTTGAG (site ACCTAGACTCT)”, 1.17. For “ACCTAGACATGGACCGGTTTTCCCGGTAATCCGTATTTGGT (site ACCTAGACTAC)” the value was 0.0673. For “ACCTAGACATGGACCGGTTTTCCCGGTAATCCGTATTTGGT (site ACCTAGACTCC)”, the “recombinant UMI read abundance (log10)” value was determined as 0.0175.
